The values below come from patent US20240002401A1, “IMIDAZOTHIAZOLE COMPOUNDS, PHARMACEUTICAL COMPOSITIONS, AND USES THEREOF” (GUANGZHOU HENOVCOM BIOSCIENCE CO., LTD., priority 2020, published 2024).

Each structure is given as a SMILES string.

One data set deals with ATX (Homo sapiens, UniProt Q13822). Put plainly: Enzyme activity screening in vitro with LPC as substrate (Amplex Red fluorescence). In kind it is biochemical. Particulars: inhibitory activity against ATX. The text has this:
Analysis In Vitro: LPC was Used as Substrate for Screening Enzyme Activity
Principle: Lysophosphatidylcholine (LPC) as substrate is hydrolyzed by using the activity of lysoPLD enzyme, to produce lysophosphatidic acid (LPA) and choline, which is oxidized to produce H2O2 under the action of choline oxidase. In presence of horse radish peroxidase (HPR), Amplex Red reagent is reacted with H2O2 in a quantitative chemistry ratio of 1 to 1, to produce strong fluorescence products, which are detected by a fluorescent quantitative test.
20 μl of the above mixed solution 1 was added to each hole of an experiment board, […]. The compounds diluted with DMSO were transferred into an experiment board with Echo550. The reaction buffer solution was used for preparing a mixed solution 2 of […] LPC and 400 μM Amplex Red in a final concentration. 20 μl of the above mixed solution 2 was added to each hole of the experiment board. After addition, the experiment board was shook for 30 seconds on a shaker, and incubated for 30 minutes. Envision was used to read the fluorescence signals with an exciting light at 530 nm and emitted light at 590 nm.

The nature of data set [1]: Pharmacokinetics test in mice. Format: in vivo. Particulars: male SD mice; for F: absolute bioavailability, oral 5 mg/kg vs intravenous 1 mg/kg; for AUC / half-life: mouse, plasma. The text has this:
Pharmacokinetics Test in Mice
Male SD mice were selected for pharmacokinetics test study, plasma concentration at different time points were quantitatively determined by LC/MS/MS method after the mice were intravenously injected and orally administrated with the compounds to be tested, thereby evaluating pharmacokinetics characteristic of the compounds to be tested in SD mice.
SD mice (free food and drink, 6 to 8 weeks old) were intravenously administrated via a foot injection with a clear solution of the compounds to be tested, alternatively, SD mice (free food and drink, 6 to 8 week old) were intragastrically administrated with a suspension of the compounds to be tested. Blood samples were collected from the tail veins of the mice 0.083, 0.25, 0.5, 1, 2, 4, 6, 8, 10, and 24 hours after administration, and each sampling was 0.15 mL. All collected blood samples were placed into centrifuge tubes with EDTA-K2, turned upside and down to mix the anticoagulant with the blood well. The plasma was separated by centrifugation at 1500 g for 10 min at 4° C. within […]. The plasma sample was transferred into a new centrifuge tube and stored at −90° C. to −60° C. until the analysis was performed. LC-MS/MS was used to measure the blood concentration of the compounds to be tested of the present disclosure, and the pharmacokinetic parameters, as well as absolute bioavailability, were calculated by a non-compartment model in Pharsight Phoenix 8.0 software, as shown in Table 2.

Setting [2] is: Intravenous injection (1 mg/kg).

Broadly, the IC50 is the point on the concentration scale where inhibition reaches its midpoint. `CCc1nc2sc(C3CCN(CC(=O)NCC4CC4)CC3)cn2c1N(CC)c1nc(-c2ccc(F)cc2)c(C#N)s1` [Embodiment 18, 2-(4-(5-((5-cyano-4-(4-fluorophenyl)thiazol-2-yl)(ethyl)amino)-6-ethylimidazo[2,1-b]thiazol-2-yl)piperidin-1-yl)-N-(cyclopropylmethyl)acetamide] had an IC50 at ATX of 100 to 500 nM.

On ATX, `CCc1nc2sc(C3CCN(CC(=O)NC(C)(C)CO)CC3)cn2c1N(CC)c1nc(-c2ccc(F)cc2)c(C#N)s1` [Embodiment 14, 2-(4-(5-((5-cyano-4-(4-fluorophenyl)thiazol-2-yl)(ethyl)amino)-6-ethylimidazo[2,1-b]thiazol-2-yl)piperidin-1-yl)-N-(1-hydroxy-2-methylpropan-2-yl)acetamide] registered an IC50 of 0.01 to 100 nM. What is called AUC is concentration integrated over time. High values mean high exposure, low ones low exposure. One may read the half-life as the time needed for the level to fall by half in the phase considered. A high value points to slow loss. For the compound `CCc1nc2sc(C3CCN(CC(=O)N4CC(O)C4)CC3)cn2c1N(CC)c1nc(-c2ccc(F)cc2)c(C#N)s1` [Embodiment 1, 2-(ethyl(6-ethyl-2-(1-(2-(3-hydroxyazetidin-1-yl)-2-oxoethyl)piperidin-4-yl)imidazo[2,1-b]thiazol-5-yl)amino)-4-(4-fluorophenyl)thiazole-5-carbonitrile], the IC50 against ATX lay in the range of 0.01 to 100 nM. In data set [1], this compound yielded an F of 70%. In addition, in data set [1] (setting [2]), the AUC was 1670 ng·h/mL and the half-life was 4.18 h. In data set [1] (Oral administration (5 mg/kg)), this compound had an AUC of 5800 ng·h/mL and a half-life of 3.21 h. On ATX, `CCc1nc2sc(C3CCN(CC(=O)N(C)CCC#N)CC3)cn2c1N(CC)c1nc(-c2ccc(F)cc2)c(C#N)s1` [Embodiment 10, 2-(4-(5-((5-cyano-4-(4-fluorophenyl)thiazol-2-yl)(ethyl)amino)-6-ethylimidazo[2,1-b]thiazol-2-yl)piperidin-1-yl)-N-(2-cyanoethyl)-N-methylacetamide] showed a concentration for half-maximal inhibition (IC50) of 0.01 to 100 nM.

In turn, `CCc1nc2sc(C3CCN(CC(=O)N4CC(O)C4)CC3)cn2c1N(CC1CC1)c1nc(-c2ccc(F)cc2)c(C#N)s1` [Embodiment 2, 2-(cyclopropylmethyl(6-ethyl-2-(1-(2-(3-hydroxyazetidin-1-yl)-2-oxoethyl)piperidin-4-yl)imidazo[2,1-b]thiazol-5-yl)amino)-4-(4-fluorophenyl) thiazole-5-carbonitrile] registered an IC50 on ATX of 0.01 to 100 nM. Moreover, the F in data set [1] is 54%. In data set [1] (setting [2]), this compound gave an AUC of 972 ng·h/mL and a half-life of 2.84 h. For the same compound, in data set [1] (Oral administration (5 mg/kg)), the AUC turned out to be 2720 ng·h/mL and the half-life was 3.63 h.

As to `CCc1nc2sc(C3CCN(CC(=O)NCCO)CC3)cn2c1N(CC)c1nc(-c2ccc(F)cc2)c(C#N)s1` [Embodiment 3, 2-(4-(5-((5-cyano-4-(4-fluorophenyl)thiazol-2-yl)(ethyl)amino)-6-ethylimidazo[2,1-b]thiazol-2-yl]piperidin-1-yl)-N-(2-hydroxyethyl)acetamide], on ATX, the IC50 is 100 to 500 nM. `CCc1nc2sc(C3CCN(CC(=O)NCC(C)(C)O)CC3)cn2c1N(CC)c1nc(-c2ccc(F)cc2)c(C#N)s1` [Embodiment 8, 2-(4-(5-((5-cyano-4-(4-fluorophenyl)thiazol-2-yl)(ethyl)amino)-6-ethylimidazo[2,1-b]thiazol-2-yl)piperidin-1-yl)-N-(2-hydroxy-2-methylpropyl)acetamide] came in with an IC50 at ATX of 0.01 to 100 nM. With `CCc1nc2sc(C3CCN(CC(=O)NCC4(O)CCC4)CC3)cn2c1N(CC)c1nc(-c2ccc(F)cc2)c(C#N)s1` [Embodiment 16, 2-(4-(5-((5-cyano-4-(4-fluorophenyl)thiazol-2-yl)(ethyl)amino)-6-ethylimidazo[2,1-b]thiazol-2-yl)piperidin-1-yl)-N-((1-hydroxycyclobutyl)methyl) acetamide], the IC50 against ATX was 0.01 to 100 nM.

As for `CCc1nc2sc(C3CCN(CC(=O)NC4CCOCC4)CC3)cn2c1N(c1nc(-c2ccc(F)cc2)c(C#N)s1)C(C)C` [Embodiment 26, 2-(4-(5-((5-cyano-4-(4-fluorophenyl)thiazol-2-yl)(isopropyl)amino)-6-ethylimidazo[2,1-b]thiazol-2-yl)piperidin-1-yl)-N-(tetrahydro-2H-pyran-4-yl)acetamide], the IC50 against ATX was 0.01 to 100 nM. The same measure, in the same setting: in the case of `CCc1nc2sc(C3CCN(CC(=O)NC4(CO)CC4)CC3)cn2c1N(CC)c1nc(-c2ccc(F)cc2)c(C#N)s1` [Embodiment 12, 2-(4-(5-((5-cyano-4-(4-fluorophenyl)thiazol-2-yl)(ethyl)amino)-6-ethylimidazo[2,1-b]thiazol-2-yl)piperidin-1-yl)-N-(1-(hydroxymethyl)cyclopropyl)acetamide] it was 0.01 to 100 nM; in that of `CCc1nc2sc(C3CCN(CC(=O)NC4CC(O)C4)CC3)cn2c1N(CC)c1nc(-c2ccc(F)cc2)c(C#N)s1` (centres unmarked) [Embodiment 5, 2-(4-(5-((5-cyano-4-(4-fluorophenyl)thiazol-2-yl)(ethyl)amino)-6-ethylimidazo[2,1-b]thiazol-2-yl]piperidin-1-yl)-N-(3-hydroxycyclobutyl)acetamide], 0.01 to 100 nM.

In the case of `CCc1nc2sc(C3CCN(CC(=O)NC4CC(F)(F)C4)CC3)cn2c1N(CC)c1nc(-c2ccc(F)cc2)c(C#N)s1` [Embodiment 17, 2-(4-(5-((5-cyano-4-(4-fluorophenyl)thiazol-2-yl)(ethyl)amino)-6-ethylimidazo[2,1-b]thiazol-2-yl)piperidin-1-yl)-N-(3,3-difluorocyclobutyl)acetamide], the half-inhibitory concentration (IC50) against ATX lay within 100 to 500 nM. Still for that read-out and setting: next, `CCc1nc2sc(C3CCN(CC(=O)NCC4(O)CC4)CC3)cn2c1N(CC)c1nc(-c2ccc(F)cc2)c(C#N)s1` [Embodiment 15, 2-(4-(5-((5-cyano-4-(4-fluorophenyl)thiazol-2-yl)(ethyl)amino)-6-ethylimidazo[2,1-b]thiazol-2-yl)piperidin-1-yl)-N-((1-hydroxycyclopropyl)methyl)acetamide]: 100 to 500 nM; `CCc1nc2sc(C3CCN(CC(=O)N4CC(O)C4)CC3)cn2c1N(CC(F)(F)F)c1nc(-c2ccc(F)cc2)c(C#N)s1` [Embodiment 6, 2-((6-ethyl-2-(1-(2-(3-hydroxyazetidin-1-yl)-2-oxoethyl)piperidin-4-yl)imidazo[2,1-b]thiazol-5-yl)(2,2,2,-trifluoroethyl)amino)-4-(4-fluorophenyl)thiazole-5-carbonitrile]: 0.01 to 100 nM. Turning to `CCc1nc2sc(C3CCN(CC(=O)N(C)CCO)CC3)cn2c1N(CC)c1nc(-c2ccc(F)cc2)c(C#N)s1` [Embodiment 4, 2-(4-(5-((5-cyano-4-(4-fluorophenyl)thiazol-2-yl)(ethyl)amino)-6-ethylimidazo[2,1-b]thiazol-2-yl]piperidin-1-yl)-N-(2-hydroxyethyl)-N-methylacetamide], the concentration for half-maximal inhibition (IC50) against ATX was in the range of 0.01 to 100 nM. On the same count and under the same terms, in the case of `CCc1nc2sc(C3CCN(CC(=O)NC4COC4)CC3)cn2c1N(c1nc(-c2ccc(F)cc2)c(C#N)s1)C(C)C` [Embodiment 27, 2-(4-(5-((5-cyano-4-(4-fluorophenyl)thiazol-2-yl)(isopropyl)amino)-6-ethylimidazo[2,1-b]thiazol-2-yl)piperidin-1-yl)-N-(oxacyclobut-3-yl)acetamide] it was 0.01 to 100 nM; in that of `CCc1nc2sc(C3CCN(CC(=O)NCC4CCC4)CC3)cn2c1N(CC)c1nc(-c2ccc(F)cc2)c(C#N)s1` [Embodiment 19, 2-(4-(5-((5-cyano-4-(4-fluorophenyl)thiazol-2-yl)(ethyl)amino)-6-ethylimidazo[2,1-b]thiazol-2-yl)piperidin-1-yl)-N-(cyclobutylmethyl)acetamide], 0.01 to 100 nM; in that of `CCc1nc2sc(C3CCN(CC(=O)NCC(C)(C)CO)CC3)cn2c1N(CC)c1nc(-c2ccc(F)cc2)c(C#N)s1` [Embodiment 9, 2-(4-(5-((5-cyano-4-(4-fluorophenyl)thiazol-2-yl)(ethyl)amino)-6-ethylimidazo[2,1-b]thiazol-2-yl)piperidin-1-yl)-N-(3-hydroxy-2,2-dimethylpropyl)acetamide], 0.01 to 100 nM. Still for that read-out and setting: next, `CCc1nc2sc(C3CCN(CC(=O)NC(C)CO)CC3)cn2c1N(CC)c1nc(-c2ccc(F)cc2)c(C#N)s1` (centres unmarked) [Embodiment 13, 2-(4-(5-((5-cyano-4-(4-fluorophenyl)thiazol-2-yl)(ethyl)amino)-6-ethylimidazo[2,1-b]thiazol-2-yl)piperidin-1-yl)-N-(1-hydroxypropan-2-yl)acetamide]: 100 to 500 nM.
